pEC50: −log10 of the molar value.
What was measured:
P-glycoprotein (PgP) = P-glycoprotein (PgP) binding using the MTT assay with and without cyclosporin A; type: cell-based, rat; set-up: key to % Difference (PgP interaction ranking): NC=No change; conditions: for % Control (Compound + CSA) / % Control (Compound): MTT, H4IIE cells, single exposure concentration (50 μM), 24-hr; for % Control (Compound + CSA): with cyclosporin A; for % Control (Compound): without CSA; for % Difference (PgP interaction ranking): difference in the absence and presence of CSA
Experimental: For this assay, cells are incubated with and without cyclosporin A (CSA) (a PgP inhibitor) at a single exposure concentration (50 μM) and the difference in toxicity determined with the MTT assay. Compounds with increased toxicity in the presence of CSA have a high probability of binding to PgP proteins. However, compounds of low toxicity will typically not show a difference relative to the addition of CSA, regardless of whether they bind to PgP. At the end of the 24-hr exposure period the culture medium was removed and the remaining attached cells were assayed for their ability to reduce MTT. Viable cells will have the greatest amount of MTT reduction and highest absorbance values. Percent control values were determined by dividing the mean absorbance/fluorescence of the treatment group by the mean absorbance of the control group and multiplying by 100.

Caspase 3 in H4IIE cells = assay: Apoptosis: caspase 3 activity (DEVD-AMC); type: cell-based, rat
Experimental: (§1) Rat hepatoma derived H4IIE cells were used as the test system because the cell have a rapid doubling time in culture (i.e. 22 hours). The culture medium used for these cells was Eagles Minimum Essential Medium (MEM) with 10% bovine serum and 10% calf serum (Invitrogen). H4IIE cells were seeded into 96-well plates and allowed to equilibrate for approximately 48 hr before drug assay to allow cells to move into a stable growth phase prior to treatment. Following the equilibration period the cells were exposed to J-147 at concentrations of 1–300 μM. Three to 7 replicates were done for each assay to construct concentration-response curves. Solubility was determined by Nephalometry techniques immediately after dosing and prior to harvesting the cells at 6 or 24 hr. Following the incubation period, cells or their supernatant (culture medium) were analyzed for changes in cell proliferation (cell mass), membrane leakage, mitochondrial function, oxidative stress, and apoptosis. The resultant exposure concentration response curves were graphed and analyzed for determining the concentration that produced a half maximal response or TC50 [28, 30].
Caspase 3 activity was determined using a caspase substrate (DEVD, Asp-Glu-Val-Asp) labeled with a fluorescent molecule, 7-Amino-4-methylcoumarin (AMC). Caspase 3 cleaves the tetrapeptide between D and AMC, thus releasing the fluorogenic green AMC [28]. Following the test article exposure to cells in 96-well plates, medium was aspirated from plates and PBS added to each well. Plates were stored at −80°C to lyse cells and store samples until further analysis. On the day of analysis, plates were removed from freezer and thawed. […] AMC release was measured in a spectrofluorometer at an excitation wavelength of 360 nm and an emission wavelength of 460 nm. Values are expressed as relative fluorescent units (RFU). […]

[1] = system: rat hepatoma (H4IIE) cell line; assay: CeeTox MTT reduction assay; type: cell-based; conditions: H4IIE cells, 24hour
Experimental: All Ceetox assays utilizing the rat hepatoma (H4IIE) cell line as the test system were conducted by CeeTox Inc Kalamazoo, MI. Ceetox assays are described in detail by McKim and Lapchak and according to a Standard Operating Procedure (SOP).
as §1
The presence of α-Glutathione S-transferase (α-GST), an enzyme leakage marker, was measured in the culture medium using an ELISA assay purchased from Argutus Medical. […] Absorbance values were measured with a Packard SpectraCount™ reader at 450 nm and reference absorbance at 650 nm. Leakage of α-GST from the cell into the culture medium was determined by collecting the culture medium at the end of the exposure period. Thus, the values measured represent total enzyme leakage lost over the exposure period. […] Sample absorbance was read at 570 nm and reference absorbance at 650 nm with a Packard Fusion reader. […]

[2] = system: rat hepatoma (H4IIE) cell line; assay: Lipid peroxidation measured as 8-isoprostane ELISA; type: cell-based; set-up: key to Membrane Lipid Peroxidation: 0=No Change; 1=Modest increase with maximum values<15 pg/mL; 2=Concentration related increase with maximum values>15 pg/mL; 3=Concentration related increase with a maximum value>30 pg/mL; conditions: H4IIE cells; for Membrane Lipid Peroxidation: 8-isoprostane score
Experimental: as §1
8-ISO levels were determined using an ELISA (Cayman Chemical Inc). 8-ISO is a member of a family of eicosanoids produced nonenzymatically by random oxidation of tissue phospholipids by oxygen radicals. Therefore, an increase in 8-ISO is an indirect measure of increased lipid peroxidation. At the end of the exposure period, plates were either analyzed immediately or stored at −80°C until needed for analysis. Color development, which is […] proportional to the amount of 8-ISO present in the sample, was read on a Packard Fusion or equivalent plate reader at 415 nm. Background absorbance produced from Ellman’s reagent is subtracted from all wells. Non-specific binding is subtracted from the maximum binding wells to give a corrected maximum binding expressed as Bo. The percent of bound (B) relative to maximum binding capacity (Bo) for all unknown samples and for standards was determined an expressed as (%B/Bo). The %B/Bo for standards was plotted against the log of 8-ISO added to yield the final standard curve. This curve was used to convert %B/Bo to pg 8-ISO/mL of sample.

MAOB = system: MAOB; set-up: method as in PMID 23673233; conditions: read-out: EC50 MAOB inhibition; cited from earlier work
AD mouse = system: AD mouse; set-up: method as in PMID 23673233; conditions: cited from earlier work

With `CC[C@@]1(O)C(=O)OCc2c1cc1n(c2=O)Cc2cc3ccccc3nc2-1` [Camptothecin, camptothecin] the “% Control (Compound + CSA)” value (P-glycoprotein (PgP)) was 85.3%, the “% Control (Compound)” value (P-glycoprotein (PgP)) was 76.6% and the “% Difference (PgP interaction ranking)” value (P-glycoprotein (PgP)) was “NC”. For the same compound, the “Caspase 3 Activity (Index/Dose): dose” value (Caspase 3 in H4IIE cells; dose part of cell) was 1 (0–200=1), the “Caspase 3 Activity (Index/Dose): index” value (Caspase 3 in H4IIE cells; index part of cell) was 3 (400–600=3) and the “MTT TC50” value [1] was 0.5 µM. For the same compound, the “Membrane Lipid Peroxidation” value [2] was 1 (1=Modest increase with maximum values<15 pg/mL).

In the case of `COc1cccc(/C=N/N(C(=O)C(F)(F)F)c2ccc(C)cc2C)c1` [J-147, (E)-N-(2,4-Dimethylphenyl)-2,2,2-trifluoro-N′-(3-methoxybenzylidene) acetohydrazide], the “% Control (Compound + CSA)” value (P-glycoprotein (PgP)) was 92.1%, the “% Control (Compound)” value (P-glycoprotein (PgP)) was 93.7% and the “Interaction with Permeability-glycoprotein” value (P-glycoprotein (PgP); cells incubated with and without CSA, 50 μM) was “low interaction”. For the same compound, the “% Difference (PgP interaction ranking)” value (P-glycoprotein (PgP)) was “NC”, the “Effect on caspase-3 activity” value (Caspase 3 in H4IIE cells) was “did not affect” and the “MTT TC50” value [1] was 228 µM. The pEC50 (MAOB) was 5.73, the “Effect on 8-isoprostane” value [2] was “did not have any effect” and the “Membrane Lipid Peroxidation” value [2] was 0. The “Safety and memory impairment after chronic administration” value (AD mouse) was “safe and beneficial to reduce memory impairment”.

With `C=C(C)[C@H]1Cc2c(ccc3c2O[C@@H]2COc4cc(OC)c(OC)cc4[C@@H]2C3=O)O1` [Rotenone, rotenone] the “% Control (Compound + CSA)” value (P-glycoprotein (PgP)) was 86.1%, the “% Control (Compound)” value (P-glycoprotein (PgP)) was 80.5% and the “% Difference (PgP interaction ranking)” value (P-glycoprotein (PgP)) was “NC”. The “MTT TC50” value [1] was 0.07 µM and the “Membrane Lipid Peroxidation” value [2] was 0.
